According to PubChem BioAssay (NCI):
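Cells were grown in 96-well plates and exposed to each compound for 48 hours at five concentrations; endpoints were interpolated linearly between bracketing concentrations, or set to the highest concentration if not reached. TGI marks complete inhibition of growth.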

What was measured:
Assay in all cases: DTP human tumour cell line panel, 48 h
A549 NSCLC = tested on: A549 NSCLC
CAKI-1 renal = tested on: CAKI-1 renal
OVCAR-3 ovarian = tested on: OVCAR-3 ovarian
HCT-116 colon = tested on: HCT-116 colon
XF 498 CNS = tested on: XF 498 CNS
OVCAR-5 ovarian = tested on: OVCAR-5 ovarian
HL-60(TB) leukemia = tested on: HL-60(TB) leukemia
CCRF-CEM leukemia = tested on: CCRF-CEM leukemia
LOX IMVI melanoma = tested on: LOX IMVI melanoma
UACC-62 melanoma = tested on: UACC-62 melanoma
M14 melanoma = tested on: M14 melanoma
HT29 colon = tested on: HT29 colon
MALME-3M melanoma = tested on: MALME-3M melanoma
K-562 leukemia = tested on: K-562 leukemia
786-0 renal = tested on: 786-0 renal
COLO 205 colon = tested on: COLO 205 colon
UACC-257 melanoma = tested on: UACC-257 melanoma
SR leukemia = tested on: SR leukemia
NCI-H460 lung = tested on: NCI-H460 lung
MOLT-4 leukemia = tested on: MOLT-4 leukemia
SN12C renal = tested on: SN12C renal
UO-31 renal = tested on: UO-31 renal
RXF 393 renal = tested on: RXF 393 renal
DMS 114 small cell lung = tested on: DMS 114 small cell lung
A498 renal = tested on: A498 renal
SNB-78 CNS = tested on: SNB-78 CNS
ACHN renal = tested on: ACHN renal
SK-OV-3 ovarian = tested on: SK-OV-3 ovarian
SK-MEL-28 melanoma = tested on: SK-MEL-28 melanoma
SW-620 colon = tested on: SW-620 colon
U251 CNS = tested on: U251 CNS
HOP-92 NSCLC = tested on: HOP-92 NSCLC
OVCAR-8 ovarian = tested on: OVCAR-8 ovarian
LXFL 529 NSCLC = tested on: LXFL 529 NSCLC
RPMI-8226 leukemia = tested on: RPMI-8226 leukemia
IGROV1 ovarian = tested on: IGROV1 ovarian
NCI-H522 lung = tested on: NCI-H522 lung
HOP-62 NSCLC = tested on: HOP-62 NSCLC
NCI-H23 lung = tested on: NCI-H23 lung
DLD-1 colon = tested on: DLD-1 colon
SF-539 CNS = tested on: SF-539 CNS
SF-295 CNS = tested on: SF-295 CNS
SF-268 CNS = tested on: SF-268 CNS
SNB-19 CNS = tested on: SNB-19 CNS
SK-MEL-2 melanoma = tested on: SK-MEL-2 melanoma
KM12 colon = tested on: KM12 colon
NCI-H226 lung = tested on: NCI-H226 lung
HOP-18 NSCLC = tested on: HOP-18 NSCLC
SNB-75 CNS = tested on: SNB-75 CNS
DMS 273 small cell lung = tested on: DMS 273 small cell lung
EKVX NSCLC = tested on: EKVX NSCLC
HCT-15 colon = tested on: HCT-15 colon
M19-MEL melanoma = tested on: M19-MEL melanoma
KM20L2 colon = tested on: KM20L2 colon
TK-10 renal = tested on: TK-10 renal
OVCAR-4 ovarian = tested on: OVCAR-4 ovarian
SK-MEL-5 melanoma = tested on: SK-MEL-5 melanoma
HCC-2998 colon = tested on: HCC-2998 colon
RXF-631 renal = tested on: RXF-631 renal

Measured: TGI

COc1cc(C=Nc2ccc(C(C)C)cc2)cc(OC)c1OC
> 86.7 µM: K-562 leukemia
> 54.6 µM: SW-620 colon
> 68.4 µM: RPMI-8226 leukemia
> 82.3 µM: HL-60(TB) leukemia
not listed: HCC-2998 colon | RXF-631 renal
> 100 µM: all other assays above

Cc1cccc(C)c1NC(=O)CCc1nnc2s/c(=C\c3ccc(Cl)cc3)c(=O)n12
57.2 µM: HCT-116 colon
40.2 µM: SW-620 colon
36.2 µM: HCT-15 colon
not listed: RXF-631 renal
> 100 µM: all other assays above

Nc1nc(=S)[nH]c(C(=O)Nc2ccc(Cl)c(Cl)c2)c1-c1ccc(Cl)cc1
not listed: SNB-78 CNS | SK-MEL-2 melanoma | DMS 273 small cell lung
> 100 µM: all other assays above

C#C[C@]1(O)CCC2C3CCc4cc(Oc5nc(F)nc(-c6c7cc8ccccc8cc7c7n6CCS7)n5)ccc4C3CCC21C (some centres undefined)
42.2 µM: COLO 205 colon
96 µM: M14 melanoma
50.8 µM: DMS 114 small cell lung
99.6 µM: KM20L2 colon
74.3 µM: HT29 colon
55.3 µM: UACC-62 melanoma
89.7 µM: SK-MEL-2 melanoma
62.7 µM: NCI-H522 lung
not listed: CAKI-1 renal | OVCAR-5 ovarian | SR leukemia | A498 renal | HCT-15 colon | OVCAR-4 ovarian | RXF-631 renal
> 100 µM: all other assays above

CC1(C)CCC[C@@]2(C)C1CC[C@H]1CC(O)C3(C)CCC12C3 (some centres undefined)
30.8 µM: SW-620 colon
31.8 µM: ACHN renal
30.5 µM: HOP-92 NSCLC
34.5 µM: HOP-62 NSCLC
37 µM: SNB-78 CNS
72.6 µM: RPMI-8226 leukemia
32.1 µM: HT29 colon | UACC-257 melanoma
39.3 µM: SNB-75 CNS
44.5 µM: MOLT-4 leukemia
34.1 µM: HCC-2998 colon
32.3 µM: U251 CNS
33.3 µM: UO-31 renal
32.2 µM: OVCAR-5 ovarian
33.5 µM: RXF-631 renal
32.9 µM: HCT-15 colon
30.9 µM: DLD-1 colon
31.7 µM: XF 498 CNS
30.3 µM: NCI-H522 lung
30.7 µM: OVCAR-3 ovarian | MALME-3M melanoma | SN12C renal
31.9 µM: SNB-19 CNS | OVCAR-4 ovarian
61.2 µM: CCRF-CEM leukemia
40.9 µM: SF-268 CNS
28.9 µM: LOX IMVI melanoma
26.1 µM: RXF 393 renal
33 µM: SF-539 CNS | KM20L2 colon
28.7 µM: TK-10 renal
46.7 µM: SR leukemia
31.4 µM: SK-MEL-5 melanoma
33.7 µM: SK-MEL-28 melanoma
37.4 µM: A549 NSCLC
31.3 µM: KM12 colon
50.6 µM: IGROV1 ovarian
34.3 µM: NCI-H226 lung
> 100 µM: K-562 leukemia
29.2 µM: UACC-62 melanoma
32.6 µM: OVCAR-8 ovarian
32 µM: CAKI-1 renal
36.3 µM: SK-OV-3 ovarian
31 µM: HCT-116 colon | M14 melanoma
31.5 µM: 786-0 renal
31.2 µM: DMS 114 small cell lung | LXFL 529 NSCLC
51.2 µM: HL-60(TB) leukemia
32.8 µM: NCI-H460 lung | NCI-H23 lung
38.2 µM: M19-MEL melanoma

CCN(CC)CCNC(=O)c1nn(C)c(=S)[nH]c1=S
not listed: A498 renal | SF-268 CNS | RXF-631 renal
> 100 µM: all other assays above

CC(=O)/C(=C\C1=CCCO1)C(=O)Nc1ccccc1C
not listed: COLO 205 colon | A498 renal | SK-MEL-28 melanoma | SNB-75 CNS | DMS 273 small cell lung | KM20L2 colon
> 100 µM: all other assays above
